Experimental data reported in patent US20160030318A1, “HIGHLY BIOAVAILABLE Na-ACYL ACIDIC AMINO ACID ESTER SALT COMPOSITONS WITH ZWITTERIONIC SURFACTANTS” (JOHNSON & JOHNSON CONSUMER INC., priority 2014, published 2016).

Experiments:
[1] = test system: Escherichia, Pseudomonas aeruginosa, Proteus vulgarus, Staphylococcus aureus, Bacillus substilis, Candida albicans and Aspergillus niger; conditions: disclosed in GB 1352420; cited from earlier work
[2] = Disc Retention Assay (DRA) for LAE bioavailability; format: in vitro ADME
Text: Procedure for Determining Bioavailability
Lanzalaco. Availability Testing of Cetylpyridinium Chloride Mouthrinses. […] Mar. 19-23, 1997.
Cellulose Filter disks (Schleicher and Schuell #740-E)
24-well culture plate (Corning 3526)
Vacuum pulled filtration system
0.1% Acid Fuschin dye solution (w/v)
20% p-toluenesulfonic acid solution (w/v)
Spectrophotometer (Molecular Devices—SpectraMAX 190)
10. […] Vortexed solution.
12. Read absorbance spectrophotometrically at 545 nm.

[3] = described in JP 57-165305; cited from earlier work

| Substance | bactericidal activity [1] | BA ± SE with LAE [2] [%] | BA ± SE without LAE [2] [%] | Impact of surfactant on LAE bioavailability [2] | bacteriocidal activity [3] |
| --- | --- | --- | --- | --- | --- |
| N^α-cocoyl-L-arginine methyl ester pyrrolidone carboxylate | bactericidal activity |  |  |  |  |
| Poloxamer 407 |  | 35.9 ± 5.2 |  |  |  |
| Cocamidopropyl Betaine |  | 86.1 ± 2.8 | 27.6 ± 15.0 | did not negatively impact bioavailability |  |
| N^α-cocoyl-L-arginine ethyl ester pyrrolidone carboxylate | bactericidal activity |  |  |  | weak bacteriocidal activity |
